System: healthy adult subjects
Assay: Part 2 MAD: treatment-emergent adverse events, once daily for 10 days (N = 6 per dose)
Format: in vivo, human
Source text: Part 2 of the study is a MAD evaluation in healthy subjects consisting of 4 cohorts: Cohorts 1-4 received powder-in-capsule or matching placebo. Dose levels were as follows:
Safety assessments were made. A plasma PK sample was collected pre-dose on Day 8.

In the case of `CS(=O)(=O)N[C@H]1CCCN2C(=O)COc3ccccc3C3CCC(CC3)OCC12` (stereo partly drawn) [Compound A, N-[(4S,4aR,7α,10α)-1,2,3,4,4a,5,7,8,9,10,16,17-dodecahydro-17-oxo-7,10-ethanopyrido[1,2-d][1,7,4]benzodioxaazacyclotridecin-4-yl]methanesulfonamide], the “TEAE Feeling of relaxation” value (15 mg) is reported as 0 n, the “TEAE Headache” value (15 mg) is reported as 1 n and the “TEAE Hypervigilance” value (15 mg) is reported as 0 n. For the same compound, the “TEAE Insomnia” value (15 mg) was 1 n, the “TEAE Nocturia” value (15 mg) was 0 n and the “TEAE Photophobia” value (15 mg) was 0 n. For the same compound, the “TEAE Pollakiuria” value (15 mg) was 1 n, the “TEAE Salivary hypersecretion” value (15 mg) was 0 n and the “TEAE Visual impairment” value (15 mg) was 2 n. The “TEAE Vomiting” value (15 mg) was 0 n, the “TEAE by Highest Relationship: Not Related” value (shortened to “TEAE … Not Related”) (15 mg) was 0 n and the “TEAE by Highest Relationship: Related” value (15 mg) was 3 n. For the same compound, the “TEAE by Highest Severity: Mild” value (15 mg) was 3 n, the “TEAE by Highest Severity: Moderate” value (15 mg) was 0 n and the “TEAE by Highest Severity: Severe” value (15 mg) was 0 n. For the same compound, the “AE Leading to Study Drug Discontinuation” value (25 mg) was 1 n, the “Any SAEs” value (25 mg) was 0 n and the “Any TEAE” value (25 mg) was 5 n. The Death (25 mg) was 0 n, the “TEAE Abdominal pain” value (25 mg) was 0 n and the “TEAE Abdominal pain lower” value (25 mg) was 0 n. For the same compound, the “TEAE Abnormal dreams” value (25 mg) was 0 n, the “TEAE Back pain” value (25 mg) was 1 n and the “TEAE Balance disorder” value (25 mg) was 1 n. The “TEAE Blood pressure systolic increased” value (25 mg) was 1 n, the “TEAE Cough” value (25 mg) was 0 n and the “TEAE Depressed mood” value (25 mg) was 0 n. The “TEAE Diarrhoea” value (25 mg) was 0 n, the “TEAE Dizziness” value (25 mg) was 3 n and the “TEAE Euphoric mood” value (25 mg) was 1 n. The “TEAE Feeling of relaxation” value (25 mg) was 1 n, the “TEAE Headache” value (25 mg) was 0 n and the “TEAE Hypervigilance” value (25 mg) was 0 n. For the same compound, the “TEAE Insomnia” value (25 mg) was 3 n, the “TEAE Nocturia” value (25 mg) was 0 n and the “TEAE Photophobia” value (25 mg) was 0 n. For the same compound, the “TEAE Pollakiuria” value (25 mg) was 2 n, the “TEAE Salivary hypersecretion” value (25 mg) was 1 n and the “TEAE Visual impairment” value (25 mg) was 1 n. For the same compound, the “TEAE Vomiting” value (25 mg) was 0 n, the “TEAE … Not Related” value (25 mg) was 0 n and the “TEAE by Highest Relationship: Related” value (25 mg) was 5 n. The “TEAE by Highest Severity: Mild” value (25 mg) was 4 n, the “TEAE by Highest Severity: Moderate” value (25 mg) was 1 n and the “TEAE by Highest Severity: Severe” value (25 mg) was 0 n. The “AE Leading to Study Drug Discontinuation” value (Total (N = 24)) was 1 n, the “Any SAEs” value (Total (N = 24)) was 0 n and the “Any TEAE” value (Total (N = 24)) was 15 n. For the same compound, the Death (Total (N = 24)) was 0 n, the “TEAE Abdominal pain” value (Total (N = 24)) was 1 n and the “TEAE Abdominal pain lower” value (Total (N = 24)) was 1 n. The “TEAE Abnormal dreams” value (Total (N = 24)) was 1 n, the “TEAE Back pain” value (Total (N = 24)) was 1 n and the “TEAE Balance disorder” value (Total (N = 24)) was 1 n. For the same compound, the “TEAE Blood pressure systolic increased” value (Total (N = 24)) was 1 n, the “TEAE Cough” value (Total (N = 24)) was 1 n and the “TEAE Depressed mood” value (Total (N = 24)) was 1 n. For the same compound, the “TEAE Diarrhoea” value (Total (N = 24)) was 2 n, the “TEAE Dizziness” value (Total (N = 24)) was 6 n and the “TEAE Euphoric mood” value (Total (N = 24)) was 1 n. The “TEAE Feeling of relaxation” value (Total (N = 24)) was 1 n, the “TEAE Headache” value (Total (N = 24)) was 1 n and the “TEAE Hypervigilance” value (Total (N = 24)) was 1 n. The “TEAE Insomnia” value (Total (N = 24)) was 6 n, the “TEAE Nocturia” value (Total (N = 24)) was 1 n and the “TEAE Photophobia” value (Total (N = 24)) was 1 n. For the same compound, the “TEAE Pollakiuria” value (Total (N = 24)) was 3 n, the “TEAE Salivary hypersecretion” value (Total (N = 24)) was 1 n and the “TEAE Visual impairment” value (Total (N = 24)) was 3 n. The “TEAE Vomiting” value (Total (N = 24)) was 1 n, the “TEAE … Not Related” value (Total (N = 24)) was 5 n and the “TEAE by Highest Relationship: Related” value (Total (N = 24)) was 10 n. The “TEAE by Highest Severity: Mild” value (Total (N = 24)) was 13 n, the “TEAE by Highest Severity: Moderate” value (Total (N = 24)) was 2 n and the “TEAE by Highest Severity: Severe” value (Total (N = 24)) was 0 n. For the same compound, the Tolerability (multiple doses 3 to 25 mg once daily for 10 days) was “well tolerated”.

From patent US20250186405A1, “Compound For Use In Treating Narcolepsy” (Alkermes, Inc., priority 2023, published 2025)
